Activity calls are given as the source filed them.
How the values were obtained:
[1] = Luminescence Cell-Based Dose Retest to Confirm Inhibitors of Cancer Stem Cells. [Related pubchem assays (depositor defined):AID2717, AID2721]; format: functional; details: Homo sapiens
[2] = target: Multidrug resistance protein CDR2 (Candida albicans (strain SC5314 / ATCC MYA-2876) (Yeast), UniProt P78595); test: inhibition of Nile Red efflux via Candida CDR2 – S. cerevisiae AD1-8u, singleplex, Cherry Pick1 hits, dose response (AID 588604); format: functional
Chain of Multidrug resistance protein CDR2 (P78595 whole entry): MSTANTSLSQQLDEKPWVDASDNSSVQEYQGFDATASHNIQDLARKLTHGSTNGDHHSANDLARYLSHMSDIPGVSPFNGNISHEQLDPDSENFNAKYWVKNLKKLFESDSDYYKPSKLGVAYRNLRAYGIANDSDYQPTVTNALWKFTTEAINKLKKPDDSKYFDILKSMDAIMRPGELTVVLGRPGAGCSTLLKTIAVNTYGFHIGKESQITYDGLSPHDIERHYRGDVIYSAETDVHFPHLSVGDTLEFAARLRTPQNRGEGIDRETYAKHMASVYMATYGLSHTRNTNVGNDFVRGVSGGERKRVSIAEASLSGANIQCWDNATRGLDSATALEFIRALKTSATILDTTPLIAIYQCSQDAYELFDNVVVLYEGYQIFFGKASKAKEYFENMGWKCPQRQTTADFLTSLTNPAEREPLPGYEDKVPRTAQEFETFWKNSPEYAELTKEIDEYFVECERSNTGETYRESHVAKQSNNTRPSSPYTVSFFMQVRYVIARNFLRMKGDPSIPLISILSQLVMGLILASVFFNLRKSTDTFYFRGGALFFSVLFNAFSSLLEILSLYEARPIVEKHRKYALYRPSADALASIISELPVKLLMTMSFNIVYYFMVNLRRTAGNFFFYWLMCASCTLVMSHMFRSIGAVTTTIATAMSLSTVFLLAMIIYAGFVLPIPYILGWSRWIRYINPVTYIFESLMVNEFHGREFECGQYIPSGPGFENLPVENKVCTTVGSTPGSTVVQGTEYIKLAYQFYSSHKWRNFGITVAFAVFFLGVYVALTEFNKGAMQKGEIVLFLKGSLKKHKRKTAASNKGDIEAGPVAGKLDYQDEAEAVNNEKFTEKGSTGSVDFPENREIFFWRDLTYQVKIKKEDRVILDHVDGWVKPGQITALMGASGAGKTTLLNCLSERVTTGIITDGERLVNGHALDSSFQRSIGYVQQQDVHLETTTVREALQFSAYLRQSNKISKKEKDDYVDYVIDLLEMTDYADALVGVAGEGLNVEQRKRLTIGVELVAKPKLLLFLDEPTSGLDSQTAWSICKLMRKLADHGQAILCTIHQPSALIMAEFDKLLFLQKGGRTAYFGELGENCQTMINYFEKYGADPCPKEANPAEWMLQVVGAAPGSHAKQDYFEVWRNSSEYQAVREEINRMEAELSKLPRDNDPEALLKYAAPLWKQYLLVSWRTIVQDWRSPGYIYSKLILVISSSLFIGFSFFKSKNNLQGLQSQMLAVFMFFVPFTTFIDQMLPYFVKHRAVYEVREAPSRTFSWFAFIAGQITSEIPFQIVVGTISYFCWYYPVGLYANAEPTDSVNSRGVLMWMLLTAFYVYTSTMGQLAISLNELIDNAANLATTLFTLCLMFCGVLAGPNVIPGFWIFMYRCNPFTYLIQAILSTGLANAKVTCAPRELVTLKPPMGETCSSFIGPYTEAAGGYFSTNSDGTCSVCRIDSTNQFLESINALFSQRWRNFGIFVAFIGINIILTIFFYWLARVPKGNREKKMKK

Nonstructural protein 1 = Nonstructural protein 1 (Influenza A virus, UniProt Q194T2); format: functional, Influenza A virus (A/California/07/2009(H1N1))
Chain of Nonstructural protein 1 (Q194T2 whole entry): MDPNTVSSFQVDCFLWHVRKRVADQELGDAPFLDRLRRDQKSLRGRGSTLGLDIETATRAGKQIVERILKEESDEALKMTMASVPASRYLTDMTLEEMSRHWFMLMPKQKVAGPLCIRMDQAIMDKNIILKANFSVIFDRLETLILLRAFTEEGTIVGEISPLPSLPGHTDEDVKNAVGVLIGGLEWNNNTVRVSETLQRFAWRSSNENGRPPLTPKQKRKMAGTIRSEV

[3] = target: Neurotensin receptor type 1 (Homo sapiens, UniProt P30989); format: functional;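 note: Image-based confirmatory dose-response assay measuring agonist activity at NTR1; NTR1-expressing U2OS osteosarcoma cells imaged for beta-arrestin GFP spot formation; agonist potency where compounds increase beta-arrestin recruitment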
Chain of Neurotensin receptor type 1 (P30989 whole entry): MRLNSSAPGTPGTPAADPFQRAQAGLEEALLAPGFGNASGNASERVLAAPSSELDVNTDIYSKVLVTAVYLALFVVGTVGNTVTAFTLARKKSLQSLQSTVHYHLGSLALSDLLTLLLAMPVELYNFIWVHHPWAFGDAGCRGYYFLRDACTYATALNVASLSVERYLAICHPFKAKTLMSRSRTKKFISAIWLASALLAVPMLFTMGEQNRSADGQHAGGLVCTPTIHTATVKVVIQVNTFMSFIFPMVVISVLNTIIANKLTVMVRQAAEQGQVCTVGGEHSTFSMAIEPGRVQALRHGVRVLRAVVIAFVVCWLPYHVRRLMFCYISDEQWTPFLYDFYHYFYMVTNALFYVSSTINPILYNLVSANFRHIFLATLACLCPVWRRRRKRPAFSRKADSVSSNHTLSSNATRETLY

[4] = target: T1, Replicative DNA helicase DnaB (Mycobacterium tuberculosis, UniProt P9WMR3); test: DnaB intein splicing inhibitors, dose response, biochemical, cell-free fluorescence (AID 449749); format: functional
T1 sequence (P9WMR3 whole entry): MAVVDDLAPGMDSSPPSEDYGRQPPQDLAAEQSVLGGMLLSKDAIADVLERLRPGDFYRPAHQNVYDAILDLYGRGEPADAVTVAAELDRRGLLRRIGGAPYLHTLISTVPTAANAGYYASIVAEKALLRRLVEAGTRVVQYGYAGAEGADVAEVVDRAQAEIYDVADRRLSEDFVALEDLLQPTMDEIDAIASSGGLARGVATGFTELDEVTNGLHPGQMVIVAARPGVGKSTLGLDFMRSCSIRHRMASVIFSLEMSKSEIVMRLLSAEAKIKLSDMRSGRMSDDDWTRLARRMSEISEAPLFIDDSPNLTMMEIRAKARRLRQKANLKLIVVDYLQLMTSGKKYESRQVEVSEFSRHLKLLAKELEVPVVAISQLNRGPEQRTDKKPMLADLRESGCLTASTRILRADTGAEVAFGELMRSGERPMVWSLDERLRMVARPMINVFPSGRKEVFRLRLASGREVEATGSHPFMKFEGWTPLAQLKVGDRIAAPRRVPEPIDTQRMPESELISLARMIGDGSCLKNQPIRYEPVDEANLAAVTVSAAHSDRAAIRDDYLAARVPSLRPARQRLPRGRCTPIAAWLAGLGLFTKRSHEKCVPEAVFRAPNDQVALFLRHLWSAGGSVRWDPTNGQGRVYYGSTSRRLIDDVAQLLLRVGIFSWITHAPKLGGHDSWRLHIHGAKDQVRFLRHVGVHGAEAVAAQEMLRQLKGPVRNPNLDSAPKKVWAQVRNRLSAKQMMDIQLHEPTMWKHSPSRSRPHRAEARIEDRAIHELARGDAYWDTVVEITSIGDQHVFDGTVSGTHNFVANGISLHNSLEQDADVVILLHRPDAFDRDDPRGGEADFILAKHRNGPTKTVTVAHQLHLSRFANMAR

Protein RecA = target: T2, Protein RecA (Mycobacterium tuberculosis, UniProt P9WHJ3); test: Fluorescence Cell-Free Homogeneous Dose Retest to Identify Inhibitors of RecA-Intein Splicing Activity. [Related pubchem assays (depositor defined):AID2097, AID2223, AID489010, AID492950]; format: functional
T2 sequence (P9WHJ3 whole entry): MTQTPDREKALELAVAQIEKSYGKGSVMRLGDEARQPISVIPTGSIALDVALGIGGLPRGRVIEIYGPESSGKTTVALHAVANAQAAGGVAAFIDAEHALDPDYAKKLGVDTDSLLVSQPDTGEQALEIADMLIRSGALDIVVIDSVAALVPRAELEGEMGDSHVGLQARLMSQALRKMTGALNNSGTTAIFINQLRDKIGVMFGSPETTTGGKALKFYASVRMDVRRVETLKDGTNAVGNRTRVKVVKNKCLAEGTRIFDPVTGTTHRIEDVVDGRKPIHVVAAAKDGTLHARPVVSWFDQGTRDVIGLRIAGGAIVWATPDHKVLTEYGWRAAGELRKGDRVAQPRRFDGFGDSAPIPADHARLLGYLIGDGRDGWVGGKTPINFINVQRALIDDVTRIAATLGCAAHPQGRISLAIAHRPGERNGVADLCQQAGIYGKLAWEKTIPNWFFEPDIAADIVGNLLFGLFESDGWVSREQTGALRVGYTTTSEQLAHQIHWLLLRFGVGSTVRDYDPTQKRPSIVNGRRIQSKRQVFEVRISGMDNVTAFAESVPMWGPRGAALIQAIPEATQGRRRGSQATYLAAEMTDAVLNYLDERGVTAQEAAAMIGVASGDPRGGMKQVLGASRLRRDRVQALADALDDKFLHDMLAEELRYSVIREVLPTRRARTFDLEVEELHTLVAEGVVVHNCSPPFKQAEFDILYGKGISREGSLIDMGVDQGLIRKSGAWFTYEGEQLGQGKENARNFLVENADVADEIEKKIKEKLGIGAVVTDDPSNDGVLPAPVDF

CCCCCc1cc(=O)oc2c(C(CCN3CCCC(C)C3)c3ccc(N(C)C)cc3)c(OC)cc(OC)c12 (stereo unspecified)
active: AC50 [1] 5.3 µM | EC50 [2] 25.4 µM | IC50 (Nonstructural protein 1) 5.48 µM | EC50 [3] 17.7 µM | AC50 [4] 8.48 µM | EC50 (Protein RecA) 8.08 µM
